For this experiment, the system named is LNCaP cells. Briefly: LNCaP cell viability assay (MTS). The class given is cell-based. The note with it: LNCaP cell line. How it is done: LNCaP cell line was used for the cell viability assay. LNCaP cells were plated in 96-well plates at a density of 5000 cells per well. After 24 hours of plating, the cells were treated with increasing doses of compound (e.g., compounds 1-269) ranging from 1 μM to 80 μM. Relative cell numbers were analyzed after 48 hours using 3-(4,5-dimethylthiazol-2-yl)-5-(3-carboxymethoxyphenyl)-2-(4-sulfophenyl)-2H-tetrazolium (MTS) assay (Promega) according to the manufacturer's instructions.
The cell viability data was analyzed with GraphPad Prism software. The values were log transformed and analyzed with non-linear regression (curve-fit) using log(inhibitor) vs. response-variable slope (four parameters) and constraining the bottom to equal zero. Unless otherwise indicated, the GI50 values provided in Table 113 correspond to the LNCaP cell viability assays.

Regarding `CN(C)CC(NS(=O)(=O)c1ccc(OC(F)(F)F)c(Cl)c1)c1ccc(Cl)c(Cl)c1` (single isomer, unassigned) [Compound 201, 3-chloro-N-(1-(3,4-dichlorophenyl)-2-(dimethylamino)ethyl)-4-(trifluoromethoxy)benzenesulfonamide], growth (Homo sapiens, LNCaP, 48 h) was halved (GI50) at 22.8 µM. For the setting “48 hours”, `CN(C)CC(NS(=O)(=O)c1ccc(OC(F)(F)F)c(Cl)c1)c1ccc(Cl)c(Cl)c1` (single isomer, unassigned) [Compound 202, 3-chloro-N-(1-(3,4-dichlorophenyl)-2-(dimethylamino)ethyl)-4-(trifluoromethoxy)benzenesulfonamide] came in with a GI50 of 21.6 µM. With `CN(C)C[C@@H](NS(=O)(=O)c1ccc(OC(F)(F)F)c([N+](=O)[O-])c1)c1ccc(Cl)c(Cl)c1` (single isomer, unassigned) [Compound 203, N-(1-(3,4-dichlorophenyl)-2-(dimethylamino)ethyl)-3-nitro-4-(trifluoromethoxy)benzenesulfonamide], halving of growth (Homo sapiens, LNCaP, 48 h) (GI50) required 1.4 µM. In other words, the single-digit micromolar range. As to `CN(C)C[C@@H](NS(=O)(=O)c1ccc(OC(F)(F)F)c([N+](=O)[O-])c1)c1ccc(Cl)c(Cl)c1` (single isomer, unassigned) [Compound 204, N-(1-(3,4-dichlorophenyl)-2-(dimethylamino)ethyl)-3-nitro-4-(trifluoromethoxy)benzenesulfonamide], the GI50 (48 hours) is 1.14 µM. The compound `O=S(=O)(NC(CN1CC2CC1CN2)c1ccc(Cl)c(Cl)c1)c1ccc(OC(F)(F)F)cc1` (single isomer, unassigned) [Compound 261a, N-(2-(2,5-diazabicyclo[2.2.1]heptan-2-yl)-1-(3,4-dichlorophenyl)ethyl)-4-(trifluoromethoxy)benzenesulfonamide] registered a GI50 (Homo sapiens, LNCaP, 48 h) of 10.5 µM. This counts as double-digit micromolar. Turning to `O=S(=O)(NC(CN1CC2CC1CN2)c1ccc(Cl)c(Cl)c1)c1ccc(OC(F)(F)F)cc1` (single isomer, unassigned) [Compound 261b, N-(2-(2,5-diazabicyclo[2.2.1]heptan-2-yl)-1-(3,4-dichlorophenyl)ethyl)-4-(trifluoromethoxy)benzenesulfonamide], the GI50 (48 hours) was determined as 9.79 µM. The compound `COc1ccc(S(=O)(=O)N2CCC(CNS(=O)(=O)c3ccc(OC(F)(F)F)cc3)CC2)cc1OC` [Compound 1, N-((1-((3,4-dimethoxyphenyl)sulfonyl)piperidin-4-yl)methyl)-4-(trifluoromethoxy)benzenesulfonamide] returned a GI50 (Homo sapiens, LNCaP, 48 h) of 63.8 µM. On the same count and under the same terms, next, `O=S(=O)(NCc1ccccc1S(=O)(=O)N1CCCCC1)c1ccc(OC(F)(F)F)cc1` [Compound 2, N-(2-(piperidin-1-ylsulfonyl)benzyl)-4-(trifluoromethoxy)benzenesulfonamide]: 58.3 µM; `O=S(=O)(NCCNS(=O)(=O)c1cc(Br)ccc1Br)c1ccc(OC(F)(F)F)cc1` [Compound 3, 2,5-dibromo-N-(2-((4-(trifluoromethoxy)phenyl)sulfonamido)ethyl)benzenesulfonamide]: 24.6 µM. The compound `CCCC(NS(=O)(=O)c1ccc(OC(F)(F)F)cc1)C(=O)N(C)C1CCCCCC1` (centres unmarked) [Compound 4, N-cycloheptyl-N-methyl-2-((4-(trifluoromethoxy)phenyl)sulfonamido)pentanamide] had a GI50 (Homo sapiens, LNCaP, 48 h) of 54 µM.

In turn, `CCCCC(NS(=O)(=O)c1ccc(OC(F)(F)F)cc1)C(=O)OC(C)(C)C` (centres unmarked) [Compound 5, Tert-butyl 2-((4-(trifluoromethoxy)phenyl)sulfonamido)hexanoate] gave a GI50 (Homo sapiens, LNCaP, 48 h) of 39.5 µM. The GI50 values of the last two compounds are within 1.5-fold of each other. Still for that read-out and setting: next, `COC(=O)C[C@@H](Cc1ccccc1)NS(=O)(=O)c1ccc(OC(F)(F)F)cc1` [Compound 6, Methyl (R)-4-phenyl-3-((4-(trifluoromethoxy)phenyl)sulfonamido)butanoate]: 61.1 µM; `CC[C@H](C)[C@H](NS(=O)(=O)c1ccc(OC(F)(F)F)cc1)C(=O)OC(C)(C)C` [Compound 7, Tert-butyl ((4-(trifluoromethoxy)phenyl)sulfonyl)-L-isoleucinate]: 57.9 µM; `O=S(=O)(NC(CC(F)(F)F)c1ccccc1)c1ccc(OC(F)(F)F)cc1` (centres unmarked) [Compound 8, N-(3,3,3-trifluoro-1-phenylpropyl)-4-(trifluoromethoxy)benzenesulfonamide]: 38.1 µM. `Cc1cccc(CC(CO)NS(=O)(=O)c2ccc(OC(F)(F)F)cc2)c1` (centres unmarked) [Compound 9, N-(1-hydroxy-3-(m-tolyl)propan-2-yl)-4-(trifluoromethoxy)benzenesulfonamide]: the GI50 (Homo sapiens, LNCaP, 48 h) came to 24.1 µM. This GI50 lies about 1.6-fold lower than the previous one.

For the compound `CC(C)CC(CCO)NS(=O)(=O)c1ccc(OC(F)(F)F)cc1` (centres unmarked) [Compound 10, N-(1-hydroxy-5-methylhexan-3-yl)-4-(trifluoromethoxy)benzenesulfonamide], it took 5.47 µM to inhibit growth (Homo sapiens, LNCaP, 48 h) by half (GI50). Take `CC(O)COc1ccccc1CNS(=O)(=O)c1ccc(OC(F)(F)F)cc1` (centres unmarked) [Compound 11, N-(2-(2-hydroxypropoxy)benzyl)-4-(trifluoromethoxy)benzenesulfonamide]: the GI50 (Homo sapiens, LNCaP, 48 h) stood at 30.9 µM. For the setting “Homo sapiens, LNCaP, 48 h”, `O=S(=O)(N[C@@H](CCO)c1ccccc1)c1ccc(OC(F)(F)F)cc1` [Compound 12, (S)—N-(3-hydroxy-1-phenylpropyl)-4-(trifluoromethoxy)benzenesulfonamide] registered a GI50 of 34.7 µM. This GI50 and that of the compound before are within 1.5-fold of each other. Still for that read-out and setting: next, `CCOC(=O)C(CC1CC=CCC1)NS(=O)(=O)c1ccc(OC(F)(F)F)cc1` (centres unmarked) [Compound 13, Ethyl 3-(cyclohex-3-en-1-yl)-2-((4-(trifluoromethoxy)phenyl)sulfonamido)propanoate]: 53.5 µM. For the setting “Homo sapiens, LNCaP, 48 h”, `CCOC(=O)C[C@@H](NS(=O)(=O)c1ccc(OC(F)(F)F)cc1)c1ccccc1Cl` [Compound 14, Ethyl (R)-3-(2-chlorophenyl)-3-((4-(trifluoromethoxy)phenyl)sulfonamido)propanoate] showed a GI50 of 51.9 µM. Consider `CCOC(=O)C(Cc1cccc(Cl)c1)NS(=O)(=O)c1ccc(OC(F)(F)F)cc1` (centres unmarked) [Compound 15, Ethyl 3-(3-chlorophenyl)-2-((4-(trifluoromethoxy)phenyl)sulfonamido)propanoate], for which the GI50 (Homo sapiens, LNCaP, 48 h) turned out to be 49.6 µM. Under “Homo sapiens, LNCaP, 48 h”, `CCOC(=O)C(NS(=O)(=O)c1ccc(OC(F)(F)F)cc1)c1ccc(OC)c(Br)c1` (centres unmarked) [Compound 16, Ethyl 2-(3-bromo-4-methoxyphenyl)-2-((4-(trifluoromethoxy)phenyl)sulfonamido)acetate] yielded a GI50 of 49.7 µM.

In the case of `CCc1ccc(C(NS(=O)(=O)c2ccc(OC(F)(F)F)cc2)C(C)(C)C)o1` (centres unmarked) [Compound 17, N-(1-(5-ethylfuran-2-yl)-2,2-dimethylpropyl)-4-(trifluoromethoxy)benzenesulfonamide], halving of growth (Homo sapiens, LNCaP, 48 h) (GI50) required 55.6 µM.

With `COc1ccc(C)cc1CC(NS(=O)(=O)c1ccc(OC(F)(F)F)cc1)C(C)C` (centres unmarked) [Compound 18, N-(1-(2-methoxy-5-methylphenyl)-3-methylbutan-2-yl)-4-(trifluoromethoxy)benzenesulfonamide], where the note is “Homo sapiens, LNCaP, 48 h”, the GI50 worked out at 76.7 µM. As to `O=S(=O)(NC(CC1CC1)c1ccccc1)c1ccc(OC(F)(F)F)cc1` (centres unmarked) [Compound 19, N-(2-cyclopropyl-1-phenylethyl)-4-(trifluoromethoxy)benzenesulfonamide], for the setting “Homo sapiens, LNCaP, 48 h”, the concentration for 50% growth inhibition (GI50) came to 51.9 µM. Same read-out and setting: next, `COC(c1ccccc1Cl)C(C)NS(=O)(=O)c1ccc(OC(F)(F)F)cc1` (centres unmarked) [Compound 20, N-(1-(2-chlorophenyl)-1-methoxypropan-2-yl)-4-(trifluoromethoxy)benzenesulfonamide]: 50.9 µM.

Values taken from patent US20240174603A1 (Rappta Therapeutics Oy, priority 2021, published 2024).
